Values joined by “and” are separate entries in the source; they are usually repeats but may differ in a detail not shown here. Identical values can stand only once.
Key:
[1] = Bodyweight, CIDP mouse model; format: in vivo; settings: per animal, listed as hAAT
Experimental: C57BL/6 mice were received at 8 weeks of age and housed under controlled conditions for the duration of the study. Three groups of 4 animals each were assigned to the following subcutaneous treatments twice daily at 7:00 AM and 7:00 PM for 2 weeks, from 20 to 35 days after the start of disease induction: • Wild type (WT) mice receiving the vehicle, 0.9% NaCl (positive control) • CIDP mice receiving the vehicle, 0.9% NaCl (negative control) • CIDP mice receiving human AAT (AAT), 50 mg/kg per injection
Disease induction consisted in subcutaneous injection of mouse sciatic nerve homogenate in phosphate buffer saline (PBS)+Freund's adjuvant mixture at 10 mL/kg. For each treatment, 3 different body sites injections were performed. Control mice also received three subcutaneous injections of PBS+Freund's adjuvant at the same 3 different body sites.

[2] = test system: CMT1A mice B6.Cg-Tg(PMP22)C3Fbas/J; assay: Sciatic nerve electrophysiology (CMAP, NCV), CMT mice treated with AAT 180 mg/kg/day sc; format: in vivo, mouse
Experimental: (§1) CMT MOUSE MODEL: Non-humanized CMT1A mice B6.Cg-Tg(PMP22)C3Fbas/J (three copies of the PMP22 gene), three groups of 8 animals each.
(§2) DOSAGE: 180 mg/kg/day non-clinical grade AAT (Sigma)
(§3) ADMINISTRATION: Subcutaneous (SC) (bi-daily injection of 90 mg/kg)
Animals were received at 6 weeks of age and housed under controlled conditions for the duration of the study. The study comprised two groups of 8 transgenic mice (CMT mice) each and one group of 8 age matched wild type (WT) C57B16 mice, serving as positive control. Animals were assigned to the following subcutaneous treatments twice daily at 7:00 AM and 7:00 PM for 2 weeks, starting from 8 weeks and up to 10 weeks of age: • Wild-type (WT, no disease) mice receiving vehicle, 0.9% NaCl (positive control) • CMT1A mice receiving vehicle, 0.9% NaCl (negative control) • CMT1A mice receiving AAT at 90 mg/kg per injection (daily dose 180 mg/kg)
(§4) The efficacy parameters included: • neuromuscular performance (rotarod latency to fall and grip strength test), • sciatic nerve electrophysiology (CMAP amplitude and NCV) • cytokine (IL-6 and TNFα), as well as NfL analysis • sciatic nerve histology (number of axons and axonal diameter),
On the first day of treatment (Day 1), the neuromuscular and performance of animals was tested with a rotarod test and a grip strength test, as well as sciatic nerve electrophysiology test, which measured the compound muscle action potential (CMAP) and the nerve conduction velocity (NCV). After the last treatment on Day 15, these tests were repeated. Animals were then left untreated for 2 additional weeks to evaluate the duration of the treatment effect. Following the 2-week treatment-free period until 12 weeks of age (Day 30), the behavioural and electrophysiological tests were repeated.

[3] = test system: C3-PMP22 transgenic mice (CMT1A); assay: Grip strength test, CMT1A mouse study (50 mg/kg twice daily); format: in vivo; settings: for Grip strength (Mean ± SEM) / Grip strenght, Mean/animal / Grip strenght, set 1, individual animals / Grip strenght, set 2, individual animals / Grip strenght, set 3, individual animals: CMT1A + AAT
Text: As a murine model of CMT1A we used C3-PMP22 transgenic mice (B6.Cg-Tg(PMP22)C3Fbas/J, The Jackson Laboratory) which express three copies of a wild-type human peripheral myelin protein 22 (PMP22) gene (Verhamme, Camiel, et al. Journal of Neuropathology & Experimental Neurology 70.5 (2011): 386-398). Mice were housed in macrolon cages with filter hoods, in a continuously air-filtered room, thereby avoiding contamination. During experiments, paired animals were caged at a constant temperature with a day/night cycle of 12/12 hours. Animals were fed (control tap water and nutrition) ad libitum. Animal protocol is approved by the Animal Studies Committee of Languedoc Roussillon. This protocol and the laboratory procedures comply with French legislation, which implements the European Directives (Reference Number: D3417223, APAFIS #23920-2020020320279696 v3). Animal health was followed on a daily basis to ensure that only animals in good health enter the testing procedures and follow up the study.
Animals were split in 3 groups (wild-type control (subcutaneous 0.9% NaCl), CMT1A-vehicle (subcutaneous 0.9% NaCl), CMT1A-human alpha-1 antitrypsin (subcutaneous, twice daily, 50 mg/kg per injection)) of 3 mice each (3 weeks old males of 18±2.5 g at the beginning of study) and all went through the following protocol after 7 days of acclimation on site.
On the first and last day of treatment, the neuromuscular performance of animals was tested with a rotarod test, grip test and sciatic nerve electrophysiology test. After the last treatment at 8 weeks, these tests were repeated, and animals were sacrificed and the left sciatic nerve was sampled for histological evaluation of the number and size of […].
Grip strength test measures neuromuscular strength by assessing the animal's grasp of a metal grid. […] At the baseline, the differences of grip strengths between groups were not statistically significant.

[4] = test system: CMT1A mice B6.Cg-Tg(PMP22)C3Fbas/J; assay: Grip strength, CMT mice treated with AAT 180 mg/kg/day sc; format: in vivo, mouse; settings: for Grip strength, group Mean: 8 animals
Experimental: as §1, §2, §3
Animals were received at 6 weeks of age and housed under controlled conditions for the duration of the study. The study comprised two groups of 8 transgenic mice (CMT mice) each and one group of 8 age matched wild type (WT) C57B16 mice, serving as positive control. […]
as §4
After the last treatment on Day 15, these tests were repeated. Animals were then left untreated for 2 additional weeks to evaluate the duration of the treatment effect. Following the 2-week treatment-free period until 12 weeks of age (Day 30), the behavioural and electrophysiological tests were repeated.

[5] = 8 weeks old (baseline, Day 1), CMT1A + AAT
[6] = 8 weeks old, CMT + hAAT 180 mg/kg/day SC, 8 mice
[7] = 8 weeks old, CMT + hAAT 180 mg/kg/day SC, individual mouse
[8] = 10 weeks old (Day 15, after 2 weeks AAT 90 mg/kg sc twice daily)
[9] = 12 weeks of age, after 2-week treatment-free period, P<0.05
[10] = 12 weeks old (Day 30, after 2-week treatment-free period)
[11] = CMT mice, AAT 90 mg/kg sc twice a day, 8 to 10 weeks of age, end of treatment
[12] = baseline (6 weeks old), CMT + hAAT, individual animal

**Q.** Which results are given for alpha1-antitrypsin (AAT) protein?
**A.** Bodyweight ([1]; day 1 (before disease induction), in g (unit assumed)): 20.74 and 20.81 and 19.50 and 20.65; Bodyweight ([1]; day 5 (before treatment), in g (unit assumed)): 20.92 and 21.07 and 20.12 and 20.71; Bodyweight ([1]; day 9 (before treatment)): 21.26 (2×) and 20.54 and 21.00; Bodyweight ([1]; day 13 (before treatment), in g (unit assumed)): 21.76 and 21.37 and 20.24 and 21.18; Bodyweight ([1]; day 17 (before treatment), in g (unit assumed)): 21.92 and 21.54 and 21.35 and 21.90; Bodyweight ([1]; day 20 (first treatment day), in g (unit assumed)): 22.06 and 21.58 and 21.41 and 22.04; Bodyweight ([1]; day 23, in g (unit assumed)): 22.21 and 21.71 and 21.43 and 22.13; Bodyweight ([1]; day 26, in g (unit assumed)): 22.31 and 21.78 and 21.47 and 22.20; Bodyweight ([1]; day 29, in g (unit assumed)): 22.49 and 21.87 and 21.53 and 22.30; Bodyweight ([1]; day 32, in g (unit assumed)): 22.68 and 22.00 and 21.64 and 22.45; Bodyweight ([1]; day 35, in g (unit assumed)): 22.79 and 22.14 and 21.65 and 22.62; Conduction velocity, group MEAN ([2]; 6 weeks old, CMT + hAAT, 8 mice): 26.266 m/s; Compound muscle action potential (Mean ± SD) [2, 5]: 3.76 ± 0.50 mV; Nerve conduction velocity (Mean ± SD) [2, 5]: 15.96 ± 1.54 m/s; Amplitude, group MEAN [2, 6]: 5.492 mV; Conduction velocity, group MEAN [2, 6]: 16.946 m/s; Amplitude [2, 7]: 4.874 mV and 5.376 mV and 5.322 mV and 9.084 mV and 6.115 mV and 3.753 mV and 5.277 mV and 4.139 mV; Conduction velocity [2, 7]: 18.707 m/s and 16.462 m/s and 10.029 m/s and 19.200 m/s and 17.615 m/s and 9.648 m/s and 25.446 m/s and 18.460 m/s; T1 distal [2, 7]: 3.916 ms and 3.259 ms and 3.449 ms and 4.291 ms and 3.773 ms and 8.247 ms and 7.467 ms and 11.449 ms; T2 proximal [2, 7]: 4.718 ms and 4.170 ms and 4.945 ms and 5.072 ms and 4.624 ms and 9.802 ms and 8.057 ms and 12.262 ms; Compound muscle action potential (Mean ± SD) [2, 8]: 5.41 ± 0.71 mV; Nerve conduction velocity (Mean ± SD) [2, 8]: 21.47 ± 6.07 m/s; NCV vs untreated group ([2]; 12 weeks of age, after 2-week treatment-free period): non-significantly different; CMAP vs untreated CMT animals [2, 9]: significantly higher; Compound muscle action potential (Mean ± SD) [2, 10]: 2.94 ± 0.65 mV; Nerve conduction velocity (Mean ± SD) [2, 10]: 10.50 ± 1.73 m/s; compound muscle action potential amplitude vs CMT mice not treated with AAT [2, 11]: significant increase; nerve conduction velocity vs CMT mice not treated with AAT [2, 11]: significant increase; Grip strength (Mean ± SEM) ([3]; 6 weeks old): 5.86 ± 0.57 newtons; Grip strenght, Mean/animal ([3]; 6 weeks old (baseline)): 5.10 Newtons and 6.97 Newtons and 5.51 Newtons; Grip strenght, set 1, individual animals ([3]; 6 weeks old (baseline)): 5.84 Newtons and 7.10 Newtons and 5.94 Newtons; Grip strenght, set 2, individual animals ([3]; 6 weeks old (baseline)): 7.62 Newtons and 7.19 Newtons and 3.08 Newtons; Grip strenght, set 3, individual animals ([3]; 6 weeks old (baseline)): 1.82 Newtons and 6.62 Newtons and 7.52 Newtons; Grip strenght, Mean/animal ([3]; 8 weeks old): 5.45 Newtons and 4.86 Newtons and 3.88 Newtons; Grip strenght, set 1, individual animals ([3]; 8 weeks old): 6.55 Newtons and 4.01 Newtons and 2.76 Newtons; Grip strenght, set 2, individual animals ([3]; 8 weeks old): 4.38 Newtons and 6.93 Newtons and 3.67 Newtons; Grip strenght, set 3, individual animals ([3]; 8 weeks old): 5.43 Newtons and 3.63 Newtons and 5.21 Newtons; Grip strength (Mean ± SEM) ([3]; 8 weeks old): 4.73 ± 0.46 newtons; grip strength compared to the control group ([3]; CMT1A mice treated with AAT, 8 weeks old): improvement; Grip strength (Mean ± SD) [4, 5]: 3.35 ± 0.27 newtons; Grip strength, group Mean ([4]; 8 weeks old, CMT + hAAT 180 mg/kg/day SC): 4.81 NEWTONS; Grip strength (Mean ± SD) [4, 8]: 5.47 ± 1.11 newtons; grip strength vs untreated CMT animals [4, 9]: significantly higher; Grip strength (Mean ± SD) [4, 10]: 3.87 ± 0.36 newtons; grip strength vs CMT mice not treated with AAT [4, 11]: significant increase; Grip strength, group Mean ([4]; baseline (6 weeks old), CMT + hAAT): 5.54 NEWTONS; Grip strength, Mean/animal [4, 12]: 4.96 NEWTONS and 4.77 NEWTONS and 6.79 NEWTONS and 6.72 NEWTONS and 6.41 NEWTONS and 4.74 NEWTONS and 4.27 NEWTONS and 5.68 NEWTONS; Grip strength, set 1 [4, 12]: 6.56 NEWTONS and 5.62 NEWTONS and 7.24 NEWTONS and 5.90 NEWTONS and 4.97 NEWTONS and 4.35 NEWTONS and 6.08 NEWTONS and 6.51 NEWTONS; Grip strength, set 2 [4, 12]: 3.79 NEWTONS and 4.00 NEWTONS and 7.19 NEWTONS and 8.88 NEWTONS and 7.60 NEWTONS and 6.25 NEWTONS and 2.61 NEWTONS and 3.97 NEWTONS; Grip strength, set 3 [4, 12]: 4.52 NEWTONS and 4.69 NEWTONS and 5.93 NEWTONS and 5.37 NEWTONS and 6.66 NEWTONS and 3.63 NEWTONS and 4.13 NEWTONS and 6.57 NEWTONS
